Experimental findings from US8926944B2, “Radiolabeled prostate specific membrane antigen inhibitors” (Molecular Insight Pharmaceuticals, priority 2011, dated 2015) are described below.

One data set addresses T1, PSMA (Homo sapiens, UniProt Q04609).
T1 construct: host or cells: LNCaP human prostate cancer cells
The data set can be described thus: competitive binding assay against 123I-DCIT in PSMA positive LNCaP cells. Particulars: Lu complexes; competition with 3 nM 123I DCIT on LNCaP cells, 1 hour at room temperature. As to the method: The compounds of Formula I or Formula II were screened in a human prostate cancer cell binding assay using PSMA positive (+), LnCap cells.
Briefly, LNCaP and PC3 human prostate cancer cells were obtained from American Type Culture Collection, Rockville, Md. LNCaP cells were maintained in RPMI-1640 medium supplemented with 10% fetal bovine serum (FBS). Binding of the radiolabeled compound and competition with cold derivatives to LNCaP cells was performed according to published methods. Cells were plated in 12-well plates at approximately 4×10^5 cells/well and incubated for 48 hours in a humidified incubator at 37° C./5% carbon dioxide prior to addition of compound. Solutions of the Formula I or Formula II compounds were prepared and diluted in serum-free cell culture medium containing 0.5% bovine serum albumin (BSA) in combination with 3 nM ^123I DCIT (known inhibitor). Total binding was determined by incubating ^123I-DCIT without test compound. Plates were incubated at room temperature for 1 hour. Cells were removed from the plates and transferred to eppendorff tubes. Samples were microcentrifuged for 15 seconds at 10K×g. The medium was aspirated and the pellet was washed twice by dispersal in fresh assay medium followed by microcentrifugation. Cell binding of ^123I DCIT was determined by counting the cell pellet in an automated gamma counter. Nonspecific binding was determined as the counts associated with the cells after incubating with 2 uM nonradiolabeled compound or 2-phosphonomethyl-pentanedioic acid (PMPA). Table 3 illustrates the IC50 values of representative Formula II complexes.

For another data set, the system named is LNCap tumor cells. The experiment in a line: tissue biodistribution study in LNCap xenograft mice. Particulars: 177Lu complex; for concentration in kidneys versus LNCap tumor cells: 4 hours post administration; for concentration in LNCap tumor cells versus kidney: 24 hours and 96 hours post administration; for change of concentration in kidney: later time intervals (24 and 96 hours). Type of data set: in vivo. As to the method:
FIG. 2 is a graph of the tissue biodistribution of a ^111In analog of the compound of Example 3, in LNCap Xenograft mice.
FIGS. 1A and 1B illustrate results of a bio-distribution study in LNCap xenograft mice of a GUG-DOTA-^177Lu complex (compound (A)) and a GUL-DOTA-^177Lu complex (compound (B)) according to Formula II.
In contrast, the inventive compounds accumulate within tumor cells with only a slight decrease in intratumoral concentration observed after 96 hours.
FIG. 2 illustrates results of a bio-distribution study in LNCap xenograft mice using a GUL-DOTA-^111In complex and a hydrophobic aminohexanoic acid linker. […] The inventors hypothesize that the low biodistribution of MIP-1450 LNCap tumor cells may be due to this compounds low affinity for PSMA expressed on the surface of LNCap cells. As stated above, it was unexpectedly that presence of carboxylic acid groups in the linker region increased affinity of Formula I compounds for PSMA. This increase in binding affinity is due, at least in part to additional cooperative binding interactions of the free carboxylic acid groups with amino acid residues of PSMA. Illustrative of Formula I compound-radionuclide complexes that have one or more carboxylic acid groups as part of the linker group include without limitation the following compounds: […]

T1 sequence (Q04609 whole entry): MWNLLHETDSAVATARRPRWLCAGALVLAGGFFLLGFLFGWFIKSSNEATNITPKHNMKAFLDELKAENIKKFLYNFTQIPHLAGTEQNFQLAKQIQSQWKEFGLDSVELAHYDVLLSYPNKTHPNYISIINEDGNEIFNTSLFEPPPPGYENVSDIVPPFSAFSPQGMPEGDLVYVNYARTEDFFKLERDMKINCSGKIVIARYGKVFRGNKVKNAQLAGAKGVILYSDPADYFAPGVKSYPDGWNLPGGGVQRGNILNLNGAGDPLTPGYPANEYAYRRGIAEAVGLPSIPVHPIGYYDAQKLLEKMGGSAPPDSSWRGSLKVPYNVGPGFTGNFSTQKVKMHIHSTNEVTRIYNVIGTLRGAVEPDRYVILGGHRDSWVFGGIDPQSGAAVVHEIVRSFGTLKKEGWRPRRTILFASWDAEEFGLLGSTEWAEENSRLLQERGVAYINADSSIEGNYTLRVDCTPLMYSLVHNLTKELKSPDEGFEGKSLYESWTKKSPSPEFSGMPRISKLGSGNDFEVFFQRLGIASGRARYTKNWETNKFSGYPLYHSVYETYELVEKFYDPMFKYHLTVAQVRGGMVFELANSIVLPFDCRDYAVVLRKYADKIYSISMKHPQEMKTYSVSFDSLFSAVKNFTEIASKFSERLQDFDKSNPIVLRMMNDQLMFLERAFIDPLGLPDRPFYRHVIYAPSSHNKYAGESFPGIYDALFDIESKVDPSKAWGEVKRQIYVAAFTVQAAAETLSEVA

Turning to “(10S,17S,21S)-10-(2-carboxyethyl)-8,11,19-trioxo-1-((4-((1,4,7,10-tetrakis(carboxymethyl)-1,4,7,10-tetraazacyclododecan-2-yl)methyl)phenyl)amino)-1-thioxo-2,9,12,18,20-pentaazatricosane-17,21,23-tricarboxylate Lu complex [Lu-MIP-1523]”, the IC50 – broadly, the point on the concentration scale where inhibition reaches its midpoint – on PSMA amounted to 54 nM.

As to “(10S,17S,21S)-10-(4-fluorobenzyl)-8,11,19-trioxo-1-((4-((1,4,7,10-tetrakis(carboxymethyl)-1,4,7,10-tetraazacyclododecan-2-yl)methyl)phenyl)amino)-1-thioxo-2,9,12,18,20-pentaazatricosane-17,21,23-tricarboxylate Lu complex [Lu-MIP-1546]”, the IC50 on PSMA worked out at 15 nM.

For the compound “(10S,17S,21S)-10-benzyl-8,11,19-trioxo-1-((4-((1,4,7,10-tetrakis(carboxymethyl)-1,4,7,10-tetraazacyclododecan-2-yl)methyl)phenyl)amino)-1-thioxo-2,9,12,18,20-pentaazatricosane-17,21,23-tricarboxylate-Lu complex [Lu-MIP-1530]”, on PSMA, the half-maximal inhibitory concentration (IC50) amounted to 21 nM.

“(10S,17S,21S)-10-(naphthalen-2-ylmethyl)-8,11,19-trioxo-1-((4-((1,4,7,10-tetrakis(carboxymethyl)-1,4,7,10-tetraazacyclododecan-2-yl)methyl)phenyl)amino)-1-thioxo-2,9,12,18,20-pentaazatricosane-17,21,23-tricarboxylate Lu complex [Lu-MIP-1545]”: on PSMA, the half-maximal inhibitory concentration (IC50) was found to be 10 nM.

Turning to “(13S,17S)-10,15-dioxo-1-((4-((1,4,7,10-tetrakis(carboxymethyl)-1,4,7,10-tetraazacyclododecan-2-yl)methyl)phenyl)amino)-1-thioxo-2,9,14,16-tetraazanonadecane-13,17,19-tricarboxylate Lu complex [Lu-MIP-1526]”, the IC50 at PSMA is 78 nM.

In the case of “^177Lu-complex of (11S,16S,20S)-11-(2-carboxyethyl)-10,13,18-trioxo-1-((4-((1,4,7,10-tetrakis(carboxymethyl)-1,4,7,10-tetraazacyclododecan-2-yl)methyl)phenyl)amino)-1-thioxo-2,9,12,17,19-pentaazadocosane-16,20,22-tricarboxylate”, in the data set with LNCap tumor cells, the “concentration in kidneys versus LNCap tumor cells” value was “concentrate to a greater extent in the kidneys than LNCap tumor cells”, the “concentration in LNCap tumor cells versus kidney” value is given as “the concentration is greater in LNCap tumor cells than kidney” and the “change of concentration in kidney” value was “significant reduction”.

Consider “(10S,13S,20S,24S)-13-(2-carboxyethyl)-10-(4-fluorobenzyl)-8,11,14,22-tetraoxo-1-((4-((1,4,7,10-tetrakis(carboxymethyl)-1,4,7,10-tetraazacyclododecan-2-yl)methyl)phenyl)amino)-1-thioxo-2,9,12,15,21,23-hexaazahexacosane-20,24,26-tricarboxylate Lu complex [Lu-MIP-1550]”, for which the concentration for half-maximal inhibition (IC50) at PSMA came to 22 nM.

`O=C(O)CC[C@H](NC(=O)N[C@@H](CCCCNC(=O)[C@H](Cc1ccc2ccccc2c1)NC(=O)CCCCCNC(=S)Nc1ccc(CC2CN(CC(=O)O)CCN(CC(=O)O)CCN(CC(=O)O)CCN2CC(=O)O)cc1)C(=O)O)C(=O)O.[177Lu]` (stereo partly drawn) [B, ^177Lu-complex of (10S,17S,21S)-10-(naphthalen-2-ylmethyl)-8,11,19-trioxo-1-((4-((1,4,7,10-tetrakis(carboxymethyl)-1,4,7,10-tetraazacyclododecan-2-yl)methyl)phenyl)amino)-1-thioxo-2,9,12,18,20-pentaazatricosane-17,21,23-tricarboxylic acid]: in the data set with LNCap tumor cells, the “concentration in kidneys versus LNCap tumor cells” value was “concentrate to a greater extent in the kidneys than LNCap tumor cells”, the “concentration in LNCap tumor cells versus kidney” value is given as “the concentration is greater in LNCap tumor cells than kidney” and the “change of concentration in kidney” value is recorded as “significant reduction”.

Take “(16S,20S)-10,18-dioxo-1-((4-((1,4,7,10-tetrakis(carboxymethyl)-1,4,7,10-tetraazacyclododecan-2-yl)methyl)phenyl)amino)-1-thioxo-2,11,17,19-tetraazadocosane-16,20,22-tricarboxylate Lu complex [Lu-MIP-1512]”: the IC50 at PSMA was 23 nM.

As for “(3S,7S,14S,17S)-14-benzyl-5,13,16-trioxo-17-(6-(3-(4-((S)-1,4,7,10-tetrakis(carboxymethyl)-1,4,7,10-tetraazacyclododecan-2-yl)methyl)phenyl)thioureido)hexanamido)-4,6,12,15-tetraazanonadecane-1,3,7,19-tetracarboxylate Lu complex [Lu-MIP-1531]”, on PSMA, the IC50 is 28 nM.

As for “(11S,16S,20S)-11-benzyl-10,13,18-trioxo-1-((4-((1,4,7,10-tetrakis(carboxymethyl)-1,4,7,10-tetraazacyclododecan-2-yl)methyl)phenyl)amino)-1-thioxo-2,9,12,17,19-pentaazadocosane-16,20,22-tricarboxylate Lu complex [Lu-MIP-1548]”, the half-inhibitory concentration (IC50) at PSMA came out at 77 nM.

On to “(11S,16S,20S)-11-(2-carboxyethyl)-10,13,18-trioxo-1-((4-((1,4,7,10-tetrakis(carboxymethyl)-1,4,7,10-tetraazacyclododecan-2-yl)methyl)phenyl)amino)-1-thioxo-2,9,12,17,19-pentaazadocosane-16,20,22-tricarboxylate Lu complex [Lu-MIP-1519]”, for which, on PSMA, the concentration for half-maximal inhibition (IC50) was 12 nM.
